Active and inactive are the calls of the source. The rule behind the calls is not given here.
What was measured:
MDA-MB-231 [1] = experiment: Antiproliferative activity against human MDA-MB-231 cells assessed as inhibition of cell proliferation at 10 uM incubated for 72 hrs by MTT assay relative to control; format: functional
MDA-MB-231 [2] = experiment: Antiproliferative activity against human MDA-MB-231 cells assessed as inhibition of cell proliferation incubated for 72 hrs by MTT assay; format: functional, cell-based; conditions: MDA-MB-231, 72 h
MDA-MB-157 = experiment: Antiproliferative activity against human MDA-MB-157 cells assessed as inhibition of cell proliferation incubated for 72 hrs by MTT assay; format: functional, cell-based; conditions: MDA-MB-157, 72 h
MDA-MB-453 = experiment: Antiproliferative activity against human MDA-MB-453 cells assessed as inhibition of cell proliferation incubated for 72 hrs by MTT assay; format: functional, cell-based; conditions: MDA-MB-453, 72 h
[3] = Cytotoxicity against human MCF-10A cells assessed as inhibition of cell proliferation incubated for 72 hrs by MTT assay; format: toxicity, cell-based
MDA-MB-231 [4] = experiment: Potency index, ratio of chloropyramine IC50 to test compound IC50 for antiproliferative activity against human MDA-MB-231 cells assessed as inhibition of cell proliferation incubated for 72 hrs by MTT assay; format: functional
[5] = Potency index, ratio of test compound IC50 to chloropyramine IC50 for cytotoxicity against human MCF-10A cells assessed as inhibition of cell proliferation incubated for 72 hrs by MTT assay; format: toxicity, cell-based; conditions: read-out: Ratio IC50
MDA-MB-231 [6] = experiment: Inhibition of cell invasion in human MDA-MB-231 cells assessed as reduction in invasive cells incubated for 24 hrs by crystal violet staining based transwell assay; format: functional; conditions: dose 5-20 µM, DDE = dose-dependent effect
MDA-MB-231 [7] = experiment: Inhibition of cell migration in human MDA-MB-231 cells incubated for 24 hrs by scratch wound healing assay; format: functional, cell-based; conditions: dose 5-20 µM, DDE = dose-dependent effect
[8] = target: Focal adhesion kinase 1 (Homo sapiens) (UniProt Q05397); experiment: Inhibition of FAK autophosphorylation at […] in human MDA-MB-231 cells incubated for 72 hrs by Western blot analysis; format: cell-based; conditions: dose 5-20 µM, DDE = dose-dependent effect
MDA-MB-231 [9] = experiment: Inhibition of focal adhesion formation in human MDA-MB-231 cells assessed as reduction in focal adhesion at 20 uM incubated for 72 hrs by vinculin antibody based immunofluorescence microscopic analysis; format: functional, cell-based
MDA-MB-231 [10] = experiment: Inhibition of stress fibers formation in human MDA-MB-231 cells assessed as reduction in stress fibers at 20 uM incubated for 72 hrs by FITC-Phalloidin staining based immunofluorescence microscopic analysis; format: functional, cell-based
MDA-MB-231 [11] = experiment: Induction of apoptosis in human MDA-MB-231 cells assessed as viable cells at 5 uM incubated for 72 hrs by Annexin V-FITC and PI staining based flow cytometry analysis (reference value: 92.16 %); format: functional; conditions: read-out: Activity
MDA-MB-231 [12] = experiment: Induction of apoptosis in human MDA-MB-231 cells assessed as early apoptotic cells at 5 uM incubated for 72 hrs by Annexin V-FITC and PI staining based flow cytometry analysis (reference value: 1.70 %); format: functional
MDA-MB-231 [13] = experiment: Induction of apoptosis in human MDA-MB-231 cells assessed as late apoptotic cells at 5 uM incubated for 72 hrs by Annexin V-FITC and PI staining based flow cytometry analysis (reference value: 4.98 %); format: functional
MDA-MB-231 [14] = experiment: Induction of apoptosis in human MDA-MB-231 cells assessed as dead cells at 5 uM incubated for 72 hrs by Annexin V-FITC and PI staining based flow cytometry analysis (reference value: 1.16 %); format: functional
MDA-MB-231 [15] = experiment: Induction of apoptosis in human MDA-MB-231 cells assessed as viable cells at 10 uM incubated for 72 hrs by Annexin V-FITC and PI staining based flow cytometry analysis (reference value: 92.16 %); format: functional; conditions: read-out: Activity
MDA-MB-231 [16] = experiment: Induction of apoptosis in human MDA-MB-231 cells assessed as early apoptotic cells at 10 uM incubated for 72 hrs by Annexin V-FITC and PI staining based flow cytometry analysis (reference value: 1.70 %); format: functional
MDA-MB-231 [17] = experiment: Induction of apoptosis in human MDA-MB-231 cells assessed as late apoptotic cells at 10 uM incubated for 72 hrs by Annexin V-FITC and PI staining based flow cytometry analysis (reference value: 4.98 %); format: functional
MDA-MB-231 [18] = experiment: Induction of apoptosis in human MDA-MB-231 cells assessed as dead cells at 10 uM incubated for 72 hrs by Annexin V-FITC and PI staining based flow cytometry analysis (reference value: 1.16 %); format: functional
MDA-MB-231 [19] = experiment: Induction of apoptosis in human MDA-MB-231 cells assessed as viable cells at 20 uM incubated for 72 hrs by Annexin V-FITC and PI staining based flow cytometry analysis (reference value: 92.16 %); format: functional; conditions: read-out: Activity
MDA-MB-231 [20] = experiment: Induction of apoptosis in human MDA-MB-231 cells assessed as early apoptotic cells at 20 uM incubated for 72 hrs by Annexin V-FITC and PI staining based flow cytometry analysis (reference value: 1.70 %); format: functional
MDA-MB-231 [21] = experiment: Induction of apoptosis in human MDA-MB-231 cells assessed as late apoptotic cells at 20 uM incubated for 72 hrs by Annexin V-FITC and PI staining based flow cytometry analysis (reference value: 4.98 %); format: functional
MDA-MB-231 [22] = experiment: Induction of apoptosis in human MDA-MB-231 cells assessed as dead cells at 20 uM incubated for 72 hrs by Annexin V-FITC and PI staining based flow cytometry analysis (reference value: 1.16 %); format: functional

Chain of Focal adhesion kinase 1 (Homo sapiens) (Q05397 2-1052 limits assumed): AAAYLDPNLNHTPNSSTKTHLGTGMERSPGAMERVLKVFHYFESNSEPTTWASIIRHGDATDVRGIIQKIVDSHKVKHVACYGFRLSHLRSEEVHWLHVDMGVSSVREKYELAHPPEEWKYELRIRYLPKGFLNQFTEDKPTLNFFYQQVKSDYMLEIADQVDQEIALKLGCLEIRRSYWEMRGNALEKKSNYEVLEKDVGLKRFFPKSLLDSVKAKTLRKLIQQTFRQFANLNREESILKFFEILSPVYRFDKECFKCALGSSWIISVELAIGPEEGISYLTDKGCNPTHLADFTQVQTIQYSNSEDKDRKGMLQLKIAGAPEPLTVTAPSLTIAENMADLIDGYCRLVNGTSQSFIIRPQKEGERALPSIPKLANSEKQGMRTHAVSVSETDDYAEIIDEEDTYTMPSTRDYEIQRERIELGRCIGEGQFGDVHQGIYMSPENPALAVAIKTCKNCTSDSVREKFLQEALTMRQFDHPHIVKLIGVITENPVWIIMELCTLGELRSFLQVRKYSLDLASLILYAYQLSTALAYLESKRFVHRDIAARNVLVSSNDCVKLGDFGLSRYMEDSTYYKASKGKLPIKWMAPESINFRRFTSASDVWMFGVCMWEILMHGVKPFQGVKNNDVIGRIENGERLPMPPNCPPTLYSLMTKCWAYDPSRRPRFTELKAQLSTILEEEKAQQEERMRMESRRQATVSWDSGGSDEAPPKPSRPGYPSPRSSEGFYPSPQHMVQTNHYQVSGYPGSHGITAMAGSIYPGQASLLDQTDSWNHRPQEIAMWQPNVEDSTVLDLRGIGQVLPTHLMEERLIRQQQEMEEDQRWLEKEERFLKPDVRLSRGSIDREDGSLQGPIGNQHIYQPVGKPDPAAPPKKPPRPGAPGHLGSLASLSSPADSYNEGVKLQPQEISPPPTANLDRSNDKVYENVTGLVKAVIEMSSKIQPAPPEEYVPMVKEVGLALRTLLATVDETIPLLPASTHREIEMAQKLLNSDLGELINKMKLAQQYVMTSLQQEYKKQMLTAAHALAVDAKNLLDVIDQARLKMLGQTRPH

Row | Structure (SMILES) | IC50 (MDA-MB-231 [2]) | IC50 (MDA-MB-157) | IC50 (MDA-MB-453) | inhibition at 10 µM (MDA-MB-231 [1]) | IC50 at 72 h [3] | other results
1 | CN(C)CCN(C(=O)/C=C/c1c[nH]c2ccccc12)c1ccccn1 | 8.37 µM | 12.1 µM | 9.07 µM | > 50% | 40.6 µM | Ratio IC50 (MDA-MB-231 [4]): 6; selectivity ratio at 72 h [5]: 5; inhibition (MDA-MB-231 [6]): Dde; inhibition (MDA-MB-231 [7]): Dde; inhibition [8]: Dde; inhibition (MDA-MB-231 [9]): Active; inhibition (MDA-MB-231 [10]): Active; viability at 5 µM (MDA-MB-231 [11]): 83%; Activity (MDA-MB-231 [12]): 3.05%; Activity (MDA-MB-231 [13]): 10.05%; Activity (MDA-MB-231 [14]): 3.88%; viability at 10 µM (MDA-MB-231 [15]): 63.8%; Activity (MDA-MB-231 [16]): 2%; Activity (MDA-MB-231 [17]): 30.24%; Activity (MDA-MB-231 [18]): 3.98%; viability at 20 µM (MDA-MB-231 [19]): 52.6%; Activity (MDA-MB-231 [20]): 2.01%; Activity (MDA-MB-231 [21]): 39.58%; Activity (MDA-MB-231 [22]): 5.83%
2 | COc1cc(/C=C/C(=O)N(CCN(C)C)c2ccccn2)ccc1O | 13.5 µM | 14.2 µM | 15.9 µM | > 50% | > 60 µM | 
3 | COc1cc(/C=C/C(=O)N(CCN(C)C)c2ccccn2)cc(OC)c1OC | 9.31 µM | 21.4 µM | 15.5 µM | > 50% | 45.5 µM | 

Further molecules by falling IC50 (MDA-MB-231 [2]), results first:

Row | IC50 (MDA-MB-231 [2]) | IC50 (MDA-MB-157) | IC50 (MDA-MB-453) | Structure (SMILES) | inhibition at 10 µM (MDA-MB-231 [1]) | IC50 at 72 h [3] | other results
4 | 49.7 µM | 43.1 µM | > 60 µM | CN(C)CCN(Cc1ccc(Cl)cc1)c1ccccn1 [CHLOROPYRAMINE] |  | > 60 µM | 
5 | 14 µM | 9.68 µM | 21.2 µM | Cc1nc(C)c(/C=C/C(=O)N(CCN(C)C)c2ccccn2)nc1C | > 50% | > 60 µM | 
